Source: patent US11564908B2, “Beta-lactam compounds or salts thereof for use in long-acting prevention or treatment of a glucose metabolism disorder” (GLYCOLYSIS BIOMED CO., LTD., priority 2019, dated 2023)
Marks after values point to notes of the source that are not given here.

What was measured:
db/db mice [1] = experiment: Food and water intake of mice; assay type: in vivo; conditions: daily 3 weeks then stopped, DMH 0.41, MER 0.205, CEFT 0.82, PEN 1.473, TIE 0.41 mg/g bw i.p., MET 0.3 mg/g bw oral, average
Procedure: Four to five weeks old db/db mice (BKS.Cg-Dock7^m+/+Lepr^db/JNarl) and m/m mice (BKS.Cg-Dock7^m+/Dock7^m+) were obtained from National Laboratory Animal Center ([…], Taiwan). […] PMI Nutrition International, Brentwood, Mo.) and water ad libitum. […] The mouse body weight (bw) and the amounts of water and food intake were recorded weekly for the entire study period.

db/db mice [2] = experiment: Oral glucose tolerance test (OGTT); assay type: in vivo; conditions: for OGTT glucose concentration versus G8 group (FIG. 6A): week 6 (medication stopped for 3 weeks), time points of 30 min and 60 min; for OGTT glucose concentration versus G8 group (FIG. 6B): week 9 (medication stopped for 6 weeks), time points of 30 min, 60 min and 120 min
Procedure: Blood was sampled from the tail vein, and FPG levels were measured and recorded as the basic blood glucose levels. […] The total area under the curve (AUC) in OGTT was plotted and calculated by the Area Under Coordinates Program (StatsToDo Server, Department of Obstetrics and Gynecology, Chinese University of Hong Kong).

db/db mice [3] = experiment: Plasma biochemical parameters (AST, ALT, BUN, Cr, HbA1c); conditions: daily 3 weeks then stopped, DMH 0.41, MER 0.205, CEFT 0.82, PEN 1.473, TIE 0.41 mg/g bw i.p., MET 0.3 mg/g bw oral, week 9
Procedure: Inflammatory markers such as serum aspartate aminotransferase (AST), alanine aminotransferase (ALT), blood urea nitrogen (BUN), creatinine (Cr), and hemoglobin A1c (HbA1c) were measured using a BMC-Hitachi 717 chemistry auto analyzer.

db/db mice [4] = experiment: Histopathological assessment (H&E stain); assay type: in vivo
Description: For histopathological assessment, all mice were sacrificed by 95% CO2 asphyxiation at the end of the study period. Their brain, liver, kidney, pancreas, and epididymal fat pads were removed, fixed in 10% phosphate-buffered formalin, and embedded in paraffin. Tissues embedded in paraffin were cut into 4-μm-thick sections that were then stained with hematoxylin-eosin (i.e., H&E stain).

[5] = 0.41 mg/g bw/day i.p. for 3 weeks (Example 1)

SMILES | OGTT glucose concentration versus G8 group (FIG. 6A) (db/db mice [2]) | OGTT glucose concentration versus G8 group (FIG. 6B) (db/db mice [2]) | BUN (db/db mice [3]) | Kidney histological changes (tubular degeneration and necrosis, mineralization deposition, hyaline cast) (db/db mice [4]; Example 2, end of study) | other results
CC1(C)S[C@@H]2[C@H](NC(=O)Cc3ccccc3)C(=O)N2[C@H]1C(=O)O [PEN, penicillin G] | significantly lower than that in the G8 group | significantly lower than that in the G8 group | – | – | Diet intake (db/db mice [1]): 4.0 ± 0.9^a g/mice/day
C[C@@H](O)[C@H]1C(=O)N2C(C(=O)O)=C(S[C@@H]3CN[C@H](C(=O)N(C)C)C3)[C@H](C)[C@H]12 [MER, meropenem hydrate] | – | – | 43 ± 2^bd mg/dL | – | ALT (db/db mice [3]): 89 ± 5^bcd U/L
C[C@@H](O)[C@H]1C(=O)N2C(C(=O)O)=C(S[C@@H]3CN[C@H](C(=O)Nc4cccc(C(=O)O)c4)C3)[C@H](C)[C@H]12 [DMH, ertapenem] | significantly lower than that in the G8 group | significantly lower than that in the G8 group | 44 ± 2^d mg/dL | more apparent in metformin-treated mice than in ertapenem-treated mice | OGTT glucose concentration versus DB group (FIG. 1) (db/db mice [2]; 0.41 mg/g bw/day i.p., week 3, time points of 90 min and 120 min): significantly lower than that in the DB group; Effect on oral glucose tolerance after treatment stopped (db/db mice [2]; treatment had been stopped for 10 weeks (Example 2)): effectively increased the oral glucose tolerance; Injuries in brain, liver, kidney, pancreas and epididymal fat pads (db/db mice [4]; [5]): no significant injuries; Severity and incidence of liver glycogen storage versus DB group (db/db mice [4]; [5]): slighter than that in the DB group; Injuries in liver, kidney, pancreas and epididymal fat pads (db/db mice [4]; Example 2, end of study): No significant injuries
CN(C)C(=N)N=C(N)N [Met, metformin] | – | – | – | more apparent in metformin-treated mice than in ertapenem-treated mice | –
